Reference: patent US20110146678A1, “PROCESS FOR IMPROVING CRYSTALLINITY” (priority 2008, published 2011)

Tests used:
[1] = Aerosolisation efficiency of 500/25 FP/SX combination DPI formulation, NGI via Cyclohaler; assay type: physicochemical; conditions: 500/25 formulation
Experimental: Following content uniformity testing, […] of the blend containing the FP sample 3 blend or Advair was loaded into size 3 hydroxypropylmethyl cellulose capsules (HPMC, Shionogi Qualicaps S A, Basingstoke, UK). The capsules were stored at 44% RH for 24 h prior to in vitro performance testing.
Testing was performed using a Next Generation Impactor (NGI) with pre-separator, which was connected to a vacuum pump (GE Motors). Prior to testing, the pre-separator was filled with 15 ml of mobile phase and the cups of the NGI cups were coated with 1% v/v silicone oil in hexane to eliminate particle bounce.
For each experiment, two individual capsules of the same formulation were discharged into the NGI at 90 Lpm for 2.8 s via a Cyclohaler (TEVA Pharmaceuticals, Netherlands) to ensure both devices were operated such that 4 kPa pressure drop was generated.
Following aerosolization, the NGI apparatus was dismantled and the inhaler, capsules and each part of the NGI was washed down into known volumes of HPLC mobile phase. The mass of drug deposited on each part of the NGI was determined by HPLC. This protocol was repeated three times for each blend, following which, the fine particle dose (FPD) and fine particle fraction of the loaded dose (FPFLD) were determined. The FPD represented the mass of drug that was collected on stages 3-8 of the NGI.

[2] = pMDI formulation, particle fraction distribution on NGI stages; assay type: physicochemical; conditions: stage 5 cut-off 1.36 μm, listed as micronized material
Experimental: Both samples were produced in a similar manner to sample 2 of Example 2. Sample 1 was prepared from atomization of a 3% solution of fluticasone propionate in 20% dichloromethane in methanol (3 g in 100 ml) and Sample 5 was prepared from atomization of 3% solution in acetone (3 g in 100 ml). […] The FPF values were 11.80% and 13.80% on stage 5 for samples 5 and 1 respectively compared with 6.20% for micronized material.

[3] = Cyclohaler 90 Lpm, NGI stages 3-8

fine particle fraction for SX ([1]; Cyclohaler) [%]	fine particle fraction for the engineered FP ([1]; Cyclohaler) [%]	FPD for FP [1, 3] [µg]	FPD for SX [1, 3] [µg]	FPF on stage 5 of the NGI [2] [%]	SMILES
44	15.8	79	11	–	CCC(=O)O[C@]1(C(=O)SCF)[C@H](C)C[C@H]2[C@@H]3C[C@H](F)C4=CC(=O)C=C[C@]4(C)[C@@]3(F)[C@@H](O)C[C@@]21C [Sample 3, Fluticasone propionate]
–	–	–	–	6.20	CCC(=O)O[C@]1(C(=O)SCF)[C@H](C)C[C@H]2[C@@H]3C[C@H](F)C4=CC(=O)C=C[C@]4(C)[C@@]3(F)[C@@H](O)C[C@@]21C [micronized FP, Fluticasone Propionate]
